From US8921424B2, “Histone deacetylase inhibitors, process for preparation and uses thereof” (Zhejiang Hisun Pharmaceutical Co. Ltd., priority 2007, dated 2014) come the findings set out here.

The structures appear in SMILES notation. pIC50: −log10 of the molar value. Like-named read-outs stand apart in the source and are kept apart here.

Series [1] concerns HDACs. The experiment in a line: In vitro HDACi assay (BIOMOL fluorescent-based HDAC activity assay). The series is classed as biochemical. As for the experimental part: (§1) In Vitro HDACi Assay for Determination of IC50 Values
(§2) The assay has been carried out in white 96 well formats according to the BIOMOL's method. […] The reaction mixture was incubated at room temperature for 2 hours. Flur de lys Developer was added and the reaction was incubated for 10 min. Briefly, deacetylation of the substrate sensitizes to the developer, which then generates a fluorophore. The fluorophore is excited with 360 nm light and the emitted light (460 nm) is detected on a fluorometric plate reader (Molecular Device Ultra Microplate detection system, MD Group Ltd).
(§3) The analytical software, Prism 4.0 (GraphPad Software Inc) has been used to generate IC50 from a series of data.

Series [2] deals with HDAC6 (Homo sapiens (Human), UniProt Q9UBN7). The experiment in a line: In vitro HDACi assay, HDAC6. The series is classed as biochemical. Particulars: Table 3; read-out: IC50 (nM) HDAC6. The method, then:
as §1, §2, §3

In series [3] the test system is MDAMB435. The experiment in a line: Cell-based proliferation assay (SRB), MDAMB435. Particulars: Homo sapiens, MDA-MB-435, Table 3. The method, then: (§4) Cell-Based Proliferation Assay for Determination of GI50 Values
(§5) A rapid multiwell plate assay using Sulforhodamine B (SRB) protein stain was adopted to evaluate the growth inhibitory effects of the compounds of the present invention. The screening panel of cancer cell lines includes Colo205 and HCT116 colon cancer cells, MDA-MB231 and MDA-MB435 chest cancer cells, A549 lung cancer cells, and Chinese hamster ovary cell line CHO, which were obtained from ATCC.
(§6) The cell line Colo205 is grown in RPMI 1640 medium containing 2 mM L-glutamine, 5% fetal bovine serum, and 1.0 mM sodium pyruvic acid. Cell lines A549 and MDA-MB231 are grown in RPMI 1640 medium containing 2 mM L-glutamine and 5% fetal bovine serum. The cell line MDA-MB435 is grown in DMEM medium containing 2 mM L-glutamine and 5% fetal bovine serum. The cell lines HCT 116 is grown in IMEM medium containing 2 mM L-glutamine and 5% fetal bovine serum. The CHO cell line, used as a normal control on toxicity, is grown in a special medium for cell line. For a typical screening experiment, A549 and Colo205 cells are inoculated into 96-well microtiter plates, with 100 μL per well, and 2000 and 5000 cells per well respectively for either cell line. MDA-MB435, HCT116, MDA-MB231 and CHO cells are also inoculated into 96-well microtiter plates, with 6000 cells per well. After cell inoculation, the microtiter plates are incubated at 37° C., 5% CO2, and 100% relative humidity for 24 hr in order to make cells adhere to well wall.
(§7) After 24 h incubation or time zero for drug addition, with each cell line 50 μl of cold 50% (w/v) TCA is added to wells used for control to fix cells in situ. Also at time zero, cells in other wells are treated with 100 μl of compound of different concentrations for 24 hr, 48 hr, and 72 hr respectively, with varying final compound concentration (0.1 μM, 1 μM, 5 μM 10 μM). For each treatment duration at each compound concentration, there are triplicate wells, as well as an array of control wells including a blank control well (cell culture medium only, no cells), a no-compound control well (adding same volume of cell culture medium but no compound), a positive control well (treated with Suberoylanilide hydroxamic acid (SAHA)), and normal cell well control (CHO cells). Following the addition of compounds, cell plates are incubated for 24 h, 48 h or 72 h per treatment group at 37° C., 5% CO2, and 100% relative humidity. The Treatment is then terminated by addition of cold TCA and incubation of 1 hr at 4° C. The supernatant is discarded, and all wells are washed five times with de-ioned water and air dried. Then each well is added with 100 μl sulforhodamine B (SRB) solution (0.4% (w/v) made in 1% acetic acid) and cell plates are incubated for 20-30 minutes at room temperature. After staining, unbound dye is removed by washing five times with 1% acetic acid and the plates are air dried. Bound stain is subsequently solubilized with 10 mM (200 μL) Tris base with the help of 5 min platform vibration or pipetting up and down, and the absorbance is read on an automated plate reader (M5 detection system, MD Group Ltd.) at a wavelength of 565 nm (calibrated zero reading of blank control at wavelength of 690 nm). The analytical software, XL-fit has been used to generate GI50 from a series of data thus obtained.

Series [4] relates to HL-60. The experiment in a line: Cell-based proliferation assay (SRB), HL-60. Particulars: Homo sapiens, HL-60, Table 3.
In series [5] the test system is Colo205. The experiment in a line: Cell-based proliferation assay (SRB), Colo205. As to conditions: Homo sapiens, COLO 205, Table 3. The method, then:
as §4, §5, §6, §7

The test system of series [6] is HCT116. The experiment in a line: Cell-based proliferation assay (SRB), HCT116. Particulars: Homo sapiens, HCT-116, Table 3. The method, then: as §4, §5, §6, §7
The subject of series [7] is SKOV-3. The experiment in a line: Cell-based proliferation assay (SRB), SKOV-3. Particulars: Homo sapiens, SK-OV-3, Table 3. The method, then:
as §4, §5, §6, §7

For series [8], the system named is BXPC-3. The experiment in a line: Cell-based proliferation assay (SRB), BXPC-3. As to conditions: Homo sapiens, BXPC-3, Table 3.
Series [9] concerns MDAMB231. As to the kind of experiment: Cell-based proliferation assay (SRB), MDAMB231. Particulars: Homo sapiens, MDA-MB-231; Table 4. The method, then: as §4, §5, §6, §7
A short description of series [10]: Microsomal stability and clearance. The format is in vitro ADME, human, mouse. Particulars: microsomal stability; Table 4. As for the experimental part:
Measure of Microsomal Stability and Clearance with Compounds of this Invention
Verapamil (positive control) and compound solution, both at 10 mM, are diluted 200 fold. There are six reaction time points in the experiment (0 min, 5 min, 15 min, 30 min, 45 min, and 60 min), and triplicate samples are used for each data point. There are controls for time zero and negative drug effect (negative control containing no incubation buffer or enzyme). For each compound or Verapamil sample, there are also samples treated with compound or Verapamil at concentrations of no positive effect (at 5 μM and 2.5 μM, respectively). Diluted positive control (Verapamil) and compound solution are mixed with pre-heated (37° C.) incubation buffer (100 mM potassium phosphate buffer, NADPH regeneration system solution B, NAPDH regeneration system solution A, HLM/MLM in Milli-Q ultrapure water), and incubated at 37° C. for 10 min. 100 μL of stop solution mixture is (containing 80% acetonitrile, and 20% DMSO, both of HPLC grade) is dispensed into wells of separate sampling plates into each well. At each reaction time point (0 min, 5 min, 15 min, 30 min, 45 min, and 60 min) 50 μL of reaction solution is taken from wells in the incubation plate and transferred to its corresponding well in the sampling plate, and mixed by pipetting up and down with stop solution already added there. The sampling plates are then covered, placed on ice, and centrifuged at 2,000 rpm at 4° C. for 15 min. 100 μL supernatant is then taken from each well to LC/MS analysis (or stored at 4° C. in refrigerator until analysis).
Data analysis: % remaining of compound is calculated by area of each time point with respect to time 0% remaining against time (min) curve is plotted using the first-phase exponential decay equation y=y0e(−kT) on the Prism 4.0. Results are shown in the format of TOP, K, t1/2 (min), R2 value and % remaining against time curve.

HDAC6, sequence (Q9UBN7 whole entry, species assumed): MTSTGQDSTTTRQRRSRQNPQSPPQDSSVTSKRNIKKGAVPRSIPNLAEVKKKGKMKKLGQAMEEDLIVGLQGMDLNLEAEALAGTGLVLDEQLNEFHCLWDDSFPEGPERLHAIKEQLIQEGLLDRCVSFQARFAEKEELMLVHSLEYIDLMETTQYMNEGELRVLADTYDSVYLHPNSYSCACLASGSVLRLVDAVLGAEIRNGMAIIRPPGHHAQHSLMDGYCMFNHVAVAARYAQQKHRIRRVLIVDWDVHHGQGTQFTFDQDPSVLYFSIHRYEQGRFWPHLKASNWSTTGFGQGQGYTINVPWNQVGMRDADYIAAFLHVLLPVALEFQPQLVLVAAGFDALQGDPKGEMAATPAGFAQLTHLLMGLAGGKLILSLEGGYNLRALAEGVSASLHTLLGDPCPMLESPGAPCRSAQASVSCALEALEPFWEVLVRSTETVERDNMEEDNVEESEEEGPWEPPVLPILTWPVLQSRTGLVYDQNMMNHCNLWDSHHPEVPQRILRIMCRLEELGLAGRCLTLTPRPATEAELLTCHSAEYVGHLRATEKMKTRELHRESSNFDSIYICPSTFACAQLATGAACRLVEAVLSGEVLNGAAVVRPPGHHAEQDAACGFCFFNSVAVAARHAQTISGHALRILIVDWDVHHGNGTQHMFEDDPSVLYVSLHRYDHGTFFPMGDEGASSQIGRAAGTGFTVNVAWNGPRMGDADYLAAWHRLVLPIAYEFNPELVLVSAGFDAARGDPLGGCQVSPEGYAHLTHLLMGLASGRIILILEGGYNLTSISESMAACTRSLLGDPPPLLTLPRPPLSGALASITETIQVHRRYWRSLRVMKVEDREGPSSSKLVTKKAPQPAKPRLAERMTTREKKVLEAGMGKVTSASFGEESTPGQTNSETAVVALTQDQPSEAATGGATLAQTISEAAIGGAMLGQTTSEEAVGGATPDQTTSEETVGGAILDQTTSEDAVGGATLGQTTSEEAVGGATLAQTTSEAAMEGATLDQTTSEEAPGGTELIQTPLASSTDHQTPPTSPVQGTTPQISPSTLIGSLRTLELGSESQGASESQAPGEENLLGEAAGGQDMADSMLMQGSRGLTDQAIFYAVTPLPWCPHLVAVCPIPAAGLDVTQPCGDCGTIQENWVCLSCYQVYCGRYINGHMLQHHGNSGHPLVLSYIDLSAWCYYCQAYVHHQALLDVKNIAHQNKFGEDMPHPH

For orientation: IC50 means the point on the concentration scale where inhibition reaches its midpoint. As a reminder, the pIC50 is −log10 of the IC50, conventionally taken in molar units. The GI50 is the concentration that inhibits growth by half. A high value points to less potent growth inhibition. As usually defined, the half-life is the time in which the quantity being followed falls by half. A higher half-life goes with slow loss. Turning to `CCN(CC)CCSc1ccc(/C=C/C(=O)NO)cc1NCc1ccccc1` [Example 6, 3-(3-(benzylamino)-4-(2-(di-ethylamino)ethylthio)phenyl)-N-hydroxy-acrylamide], the IC50 in [1] (Table 3, read-out: IC50 (nM) HDACs) came to 35 nM; in series [2], 275 nM. Besides, the pIC50 in series [1] (Table 4, read-out: HDAC enzyme inhibition activity IC50) is 4.02. Also, the GI50 turned out to be 1.95 µM in series [3]; 1.32 µM in series [4]; 2.28 µM in [5]; 0.78 µM in series [6]; 2.81 µM in series [7]; 4.33 µM in series [8]. This compound gave a GI50 in [9] of 4.39 µM. In series [10], this compound gave a half-life of 2.5 h.
